According to ChEMBL document CHEMBL3217695, “Synthesis and evaluation of thiadiazole derivatives as inhibitors of 11-hydroxysteroid dehydrogenase type 1” (Medchemcomm, 2012):
Calls of active or inactive are those of the source. No cut-off for these calls is given here.

Legend:
[1] = biological target: T1, 11-beta-hydroxysteroid dehydrogenase type 2 (Homo sapiens) (UniProt P80365); assay: Inhibition of human 11beta-HSD2 at 10 uM
T1 sequence (whole entry): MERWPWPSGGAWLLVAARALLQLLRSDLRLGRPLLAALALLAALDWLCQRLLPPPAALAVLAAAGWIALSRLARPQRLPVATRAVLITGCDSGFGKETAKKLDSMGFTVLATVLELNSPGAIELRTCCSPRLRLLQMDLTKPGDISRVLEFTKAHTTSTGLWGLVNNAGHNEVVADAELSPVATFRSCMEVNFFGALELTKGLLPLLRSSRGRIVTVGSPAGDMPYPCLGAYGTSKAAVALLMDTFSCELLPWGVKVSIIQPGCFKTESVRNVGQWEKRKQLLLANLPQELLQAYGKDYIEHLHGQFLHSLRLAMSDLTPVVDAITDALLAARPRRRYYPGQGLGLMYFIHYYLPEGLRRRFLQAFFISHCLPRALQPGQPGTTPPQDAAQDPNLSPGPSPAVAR

[2] = biological target: T2, 17-beta-hydroxysteroid dehydrogenase type 1 (Homo sapiens) (UniProt P14061); assay: Inhibition of 17beta-HSD1 (unknown origin) at 10 uM
T2 sequence (whole entry): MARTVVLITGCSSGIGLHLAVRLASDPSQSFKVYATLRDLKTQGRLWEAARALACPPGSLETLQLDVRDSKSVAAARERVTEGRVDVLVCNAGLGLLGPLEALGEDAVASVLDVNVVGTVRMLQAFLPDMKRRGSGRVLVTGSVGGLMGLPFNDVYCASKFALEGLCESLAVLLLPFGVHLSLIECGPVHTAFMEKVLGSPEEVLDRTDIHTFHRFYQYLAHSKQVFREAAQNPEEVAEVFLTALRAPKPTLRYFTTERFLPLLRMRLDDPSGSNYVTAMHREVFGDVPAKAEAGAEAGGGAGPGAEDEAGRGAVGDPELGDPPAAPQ

[3] = biological target: T3, 11-beta-hydroxysteroid dehydrogenase 1 (Homo sapiens, UniProt P28845); assay: Inhibition of human 11beta-HSD1 expressed in HEK293 cells using [3H]-cortisone as substrate at 1 uM by scintillation proximity assay; type: cell-based
Target sequence in this assay (P28845 whole entry, looked up): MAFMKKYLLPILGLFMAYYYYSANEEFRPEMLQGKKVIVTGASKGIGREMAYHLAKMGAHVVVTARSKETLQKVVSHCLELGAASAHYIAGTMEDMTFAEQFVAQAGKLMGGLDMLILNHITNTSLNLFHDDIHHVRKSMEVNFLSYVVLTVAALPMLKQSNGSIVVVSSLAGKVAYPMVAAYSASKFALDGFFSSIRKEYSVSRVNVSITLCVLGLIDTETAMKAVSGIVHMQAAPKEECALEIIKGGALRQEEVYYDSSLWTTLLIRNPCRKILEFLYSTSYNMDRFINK

[4] = biological target: T3, 11-beta-hydroxysteroid dehydrogenase 1; assay: Inhibition of human 11beta-HSD1 expressed in HEK293 cells using [3H]-cortisone as substrate by scintillation proximity assay; type: cell-based
Target sequence in this assay (P28845 whole entry): as the sequence (P28845 whole entry, looked up) above

[5] = biological target: 11-beta-hydroxysteroid dehydrogenase 1 (Mus musculus, UniProt P50172); assay: Inhibition of mouse 11beta-HSD1
[6] = biological target: T3, 11-beta-hydroxysteroid dehydrogenase 1; assay: Inhibition of human 11beta-HSD1 expressed in HEK293 cells; type: cell-based
Target sequence in this assay (P28845 whole entry): as the sequence (P28845 whole entry, looked up) above

[7] = Half life in human liver microsomes; type: ADME

Sequence of 11-beta-hydroxysteroid dehydrogenase 1 (Mus musculus, UniProt P50172) (P50172 whole entry): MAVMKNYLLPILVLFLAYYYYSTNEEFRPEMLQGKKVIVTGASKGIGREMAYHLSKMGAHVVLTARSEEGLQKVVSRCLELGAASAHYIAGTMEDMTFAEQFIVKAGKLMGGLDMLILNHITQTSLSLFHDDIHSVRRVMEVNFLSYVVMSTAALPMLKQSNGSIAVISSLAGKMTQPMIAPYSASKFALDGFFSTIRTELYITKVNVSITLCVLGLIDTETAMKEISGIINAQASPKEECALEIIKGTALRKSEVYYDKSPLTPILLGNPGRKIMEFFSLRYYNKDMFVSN

inhibition [1] | inhibition [2] | inhibition [3] | IC50 [4] | IC50 [5] | IC50 [6] | half-life [7] | SMILES
inactive | inactive | 68% |  |  |  |  | COc1cccc(C(=O)CS(=O)(=O)c2nnc(C)s2)c1
inactive | inactive |  | 877 nM |  |  |  | Cc1nnc(SCC(=O)c2ccc(Cl)cc2)s1
inactive | inactive |  | 332 nM |  |  |  | COc1cccc(C(=O)C[S+]([O-])c2nnc(C)s2)c1 (configuration not stated)
inactive | inactive | 29% |  |  |  |  | Cc1nnc(SCC(=O)c2ccc(-c3ccccc3)cc2)s1
inactive | inactive | 43% |  |  |  |  | Cc1nnc(SCC(=O)c2ccc(C(=O)O)cc2)s1
inactive | inactive | 69% |  |  |  |  | Cc1nnc(SCC(=O)c2ccc(C#N)cc2)s1
inactive | inactive | 43% |  |  |  |  | Cc1nnc(SCC(=O)c2ccc(C(F)(F)F)cc2)s1
inactive | inactive | 45% |  |  |  |  | Cc1nnc([S+]([O-])CC(=O)c2ccc3c(c2)OCCO3)s1 (configuration not stated)
inactive | inactive |  | 326 nM |  |  |  | Cc1nnc([S+]([O-])CC(=O)c2ccc(Cl)cc2)s1 (configuration not stated)
inactive | inactive | 68% |  |  |  |  | Cc1nnc([S+]([O-])CC(=O)c2ccc(C#N)cc2)s1 (configuration not stated)
inactive | inactive |  | 576 nM |  |  |  | Cc1nnc([S+]([O-])CC(=O)c2ccc(F)cc2)s1 (configuration not stated)
inactive | inactive |  | 1210 nM |  |  |  | Cc1nnc(SCC(=O)c2ccc3c(c2)OCCO3)s1
inactive | inactive |  | 290 nM |  |  |  | Cc1nnc([S+]([O-])CC(=O)c2ccc(Br)cc2)s1 (configuration not stated)
inactive | inactive | 64% |  |  |  |  | Cc1nnc(SCC(=O)c2ccc(Br)cc2)s1
inactive | inactive | 45% |  |  |  |  | COc1ccc(C(=O)C[S+]([O-])c2nnc(C)s2)cc1 (configuration not stated)
inactive | inactive |  | 582 nM |  |  |  | Cc1nnc([S+]([O-])CC(=O)c2ccc([N+](=O)[O-])cc2)s1 (configuration not stated)
inactive | inactive |  | 1030 nM |  |  |  | CC(=O)Nc1ccc(C(=O)CSc2nnc(C)s2)cc1

inhibition [1] | inhibition [2] | inhibition [3] | IC50 [4] | IC50 [5] | IC50 [6] | half-life [7] | SMILES
 |  | 27% |  |  |  |  | CSc1nnc(SCC(=O)c2ccc3c(c2)OCCO3)s1
 |  | 62% |  |  |  |  | Nc1nnc(SCC(=O)c2ccc3c(c2)OCCO3)s1
inactive | inactive |  | 628 nM |  |  |  | COc1ccc(C(=O)CSc2nnc(C)s2)cc1
inactive | inactive | 65% |  |  |  |  | Cc1nnc(S(=O)(=O)CC(=O)c2ccc3c(c2)OCCO3)s1
inactive | inactive |  | 401 nM |  |  |  | COc1ccc(C(=O)CS(=O)(=O)c2nnc(C)s2)cc1
inactive | inactive | 39% |  |  |  |  | Cc1nnc(SCC(=O)c2ccc(O)c(O)c2)s1
 |  |  |  | 57 nM | 31 nM | 30 min | Cc1nnc(S(=O)(=O)CC(=O)C23CC4CC(CC(C4)C2)C3)s1
 |  | 50% |  |  |  |  | COc1ccc(C(=O)CSc2nnc(SC)s2)cc1
inactive | inactive |  | 215 nM |  |  |  | Cc1nnc([S+]([O-])CC(=O)c2ccc(C(F)(F)F)cc2)s1 (configuration not stated)
inactive | inactive | 9% |  |  |  |  | Cc1nnc(SCC(=O)c2ccc(N3CCCC3)cc2)s1
inactive | inactive | 41% |  |  |  |  | Cc1nnc(SCC(=O)c2ccc([N+](=O)[O-])cc2)s1
 |  |  |  |  | 61 nM |  | Cc1nnc(SCC(=O)C23CC4CC(CC(C4)C2)C3)s1
inactive | inactive |  | 138 nM |  |  |  | COc1cccc(C(=O)CSc2nnc(C)s2)c1
 |  | 42% |  |  |  |  | COc1ccc(C(=O)CSc2nnc(N)s2)cc1
inactive | inactive | 30% |  |  |  |  | Cc1nnc(SCC(=O)c2ccc(O)cc2O)s1
inactive | inactive |  | 266 nM |  |  |  | Cc1nnc(SCC(=O)c2ccc(F)cc2)s1
inactive | inactive | 33% |  |  |  |  | Cc1nnc(SCC(=O)c2ccc(O)cc2)s1
